The target in one test is T1, Menin-MLL (Homo sapiens, UniProt O00255).
T1 construct: His-Menin (M1-L615 end); purchased BIORTUS BP9210
T1 sequence (O00255 1-615 isoform O00255-1): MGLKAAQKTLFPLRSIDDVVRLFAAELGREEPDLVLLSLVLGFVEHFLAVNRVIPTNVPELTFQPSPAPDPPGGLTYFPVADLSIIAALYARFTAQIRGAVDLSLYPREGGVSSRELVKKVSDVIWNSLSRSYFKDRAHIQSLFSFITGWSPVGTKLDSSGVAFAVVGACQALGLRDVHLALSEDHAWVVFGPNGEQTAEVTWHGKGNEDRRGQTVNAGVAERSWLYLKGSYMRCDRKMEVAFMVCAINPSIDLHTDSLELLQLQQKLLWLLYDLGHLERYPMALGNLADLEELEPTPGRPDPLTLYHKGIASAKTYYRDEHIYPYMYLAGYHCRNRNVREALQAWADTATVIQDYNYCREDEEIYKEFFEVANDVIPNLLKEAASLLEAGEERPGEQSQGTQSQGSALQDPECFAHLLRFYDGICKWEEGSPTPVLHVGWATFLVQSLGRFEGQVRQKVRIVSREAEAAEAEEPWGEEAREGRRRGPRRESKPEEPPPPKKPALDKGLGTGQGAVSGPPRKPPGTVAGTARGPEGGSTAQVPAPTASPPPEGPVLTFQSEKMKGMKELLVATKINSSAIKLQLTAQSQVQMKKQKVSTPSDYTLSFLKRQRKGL
The test can be described thus: Inhibitory activity against Menin-MLL binding (fluorescence polarization). As to conditions: 150 nM His-Menin, 15 nM FITC-MLL, 25°C for 60 min. The method, boiled down:
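His-Menin (M1-L615, 150 nM) preincubated with compound 15 min at 25 °C in HEPES pH 7.5, 50 mM NaCl, 1 mM DTT, 0.01% BSA, then 15 nM FITC-MLL4-43 peptide added for 60 min at 25 °C. Fluorescence polarization read; IC50 from 4-parameter logistic fit, duplicates.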
(Fluorescence polarisation rises when a labelled molecule tumbles more slowly, as on binding a larger partner.)

Test [1] has as its system MOLM-13 (carrying MLL-AF9). The test can be described thus: Inhibition of proliferation of human tumor cells (Alamar Blue, 7 days), MOLM-13. The format is cell-based. The conditions noted are these: MOLM-13 cells (carrying MLL-AF9), method calls the value GI50. Put shortly:
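Cells seeded at 4,000/well (MV-4-11, MOLM-13) or 3,000/well (KG-1a), treated in duplicate with serial compound dilutions for 7 days at 37°C, 5% CO2. Alamar Blue fluorescence read on Day 7, normalised to 0.1% DMSO Day-7 (high) and Day-0 (low) controls; GI50 derived.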

The mark [2] stands for this setting: fluorescence polarization, read-out: Menin-MLL IC50.
Where [3] appears, read: Menin-MLL IC50, fluorescence polarization.

Each structure is given as a SMILES string. Where two headings read alike, the source gives them in different places.

The IC50 is the concentration needed to halve the response being measured. On to `Cc1ncc2c(-c3ccc(F)cc3C(=O)N3CCOC[C@H]3C)cc(C3CN([C@H](CCCN4CCN(CC(F)F)CC4)C(C)C)C3)cn12` [Example 364], for which the half-maximal inhibitory concentration (IC50) worked out at 5.1 nM at Menin-MLL (setting [2]) and 3.9 nM in test [1] (Homo sapiens, 168 h).

Regarding `CCN(C(=O)c1cc(F)ccc1-c1cc(C2CN(C(CCCN3CCN(C)C(COC)C3)C(C)C)C2)cn2c(C)ncc12)C(C)C` (centres unmarked) [Example 508], the half-maximal inhibitory concentration (IC50) amounted to 1.1 nM on Menin-MLL (setting [2]) and 11 nM in test [1] (Homo sapiens, 168 h).

In the case of `CCN(C(=O)c1cc(F)ccc1-c1cc(C2CN([C@H](CCCN3CC4(C3)CN(C(C)=O)C4)C(C)C)C2)cn2c(C)ncc12)C(C)C` [Example 393], the IC50 at Menin-MLL (setting [2]) turned out to be 2.2 nM; in test [1] (Homo sapiens, 168 h), 16 nM.

For `CCN(C(=O)c1cc(F)ccc1-c1cc(C2CN([C@H](CCCN3CCC(S(C)(=O)=O)CC3)C(C)C)C2)cn2c(C)ncc12)C(C)C` [Example 404], the IC50 stood at 2.3 nM at Menin-MLL (setting [2]) and 8.1 nM in test [1] (Homo sapiens, 168 h).

For `CCN(C(=O)c1cc(F)ccc1-c1cc(C2CN([C@H](CCCN3CCN(C)[C@H](COC)C3)C(C)C)C2)cn2c(C)ncc12)C(C)C` [Example 509], the IC50 at Menin-MLL (setting [2]) was found to be 1.1 nM; in test [1] (Homo sapiens, 168 h) it was 7.2 nM.

For `CCN(C(=O)c1cc(F)ccc1-c1cc(C2CN([C@H](CCCN3CCN(CCF)CC3)C(C)C)C2)cn2c(C)ncc12)C(C)C` [Example 395], the IC50 at Menin-MLL (setting [2]) came to 2 nM; in test [1] (Homo sapiens, 168 h), 6.1 nM.

On to `CCN(C(=O)c1cc(F)ccc1-c1cc(C2CN([C@H](CN3CCN(CCOC)CC3)C(C)C)C2)cn2c(C)ncc12)C(C)C` [Example 430], for which the 50% inhibitory concentration (IC50) at Menin-MLL (setting [2]) was determined as 8.4 nM; in test [1] (Homo sapiens, 168 h), 46 nM.

With `CCN(C(=O)c1cc(F)ccc1-c1cc(C2CN([C@H](CCCN3CC4(C3)CN(C(C)=O)C4)C(C)C)C2)cc2c1cnn2C)C(C)C` [Example 409], the 50% inhibitory concentration (IC50) turned out to be 4 nM at Menin-MLL (setting [2]) and 31 nM in test [1] (Homo sapiens, 168 h).

In the case of `CCN(C(=O)c1cc(F)ccc1-c1cc(C2CN([C@H](CCCN3C4CCC3CN(C(C)=O)C4)C(C)C)C2)cn2c(C)ncc12)C(C)C` [Example 378, 2-(6-{1-[(3R)-6-{3-acetyl-3,8-diazabicyclo[3.2.1]oct-8-yl}-2-methylhexan-3-yl]azacyclobutan-3-yl}-3-methylimidazo[1,5-a]pyridin-8-yl)-N-ethyl-5-fluoro-N-(isopropyl)benzamide], the IC50 stood at 2.8 nM on Menin-MLL (setting [2]) and 5.8 nM in test [1] (Homo sapiens, 168 h).

Consider `CCN(C(=O)c1cc(F)ccc1-c1cc(C2CN([C@H](CN3CCN(C[C@H](O)CO)CC3)C(C)C)C2)cc2c1cnn2C)C(C)C` [Example 440], for which the concentration for half-maximal inhibition (IC50) at Menin-MLL (setting [3]) is 8.9 nM; in test [1] (Homo sapiens, MOLM-13, 168 h), 56 nM.

With `CCN(C(=O)c1cc(F)ccc1-c1cc(C2CN([C@H](CCCN3CCN[C@H](COC)C3)C(C)C)C2)cn2c(C)ncc12)C(C)C` [Example 503], the half-inhibitory concentration (IC50) turned out to be 1 nM at Menin-MLL (setting [2]) and 8.5 nM in test [1] (Homo sapiens, 168 h).

Take `Cc1nc(F)c2c(-c3ccc(F)cc3C(=O)N3CCOC[C@H]3C)cc(C3CN([C@H](CCCN4CCN(CC(F)F)CC4)C(C)C)C3)cn12` [Example 362]: the IC50 on Menin-MLL (setting [3]) amounted to 4.6 nM; in test [1] (Homo sapiens, MOLM-13, 168 h), 2.8 nM.

Turning to `Cc1ncc2c(-c3ccc(F)cc3C(=O)N(C)C(C)C)cc(C3CN([C@H](CCCN4CCN(CCO)CC4)C(C)C)C3)cn12` [Example 448-2], the IC50 at Menin-MLL (setting [2]) was determined as 2.2 nM; in test [1] (Homo sapiens, MOLM-13, 168 h), 13 nM.

As to `Cc1nc(F)c2c(-c3ccc(F)cc3C(=O)N3CCOC[C@H]3C)cc(C3CN([C@H](CCCN4CCN(S(C)(=O)=O)CC4)C(C)C)C3)cn12` [Example 365], the IC50 at Menin-MLL (setting [2]) stood at 8.5 nM; in test [1] (Homo sapiens, 168 h) it was 14 nM.

In the case of `Cc1cncc2c(-c3ccc(F)cc3C(=O)N(C)C(C)C)cc(CC3CN([C@H](CCCN4CCN(CCO)CC4)C(C)C)C3)n12` [Example 477-1, 5-fluoro-2-[6-({1-[(3R)-6-[4-(2-hydroxylethyl)piperazin-1-yl]-2-methylhexan-3-yl]azacyclobutan-3-yl}methyl)-4-methylpyrrolo[1,2-a]pyrazin-8-yl]-N-methyl-N-(isopropyl)benzamide], the IC50 came out at 1.1 nM on Menin-MLL (setting [2]) and 10 nM in test [1] (Homo sapiens, 168 h).

In the case of `CCN(C(=O)c1cc(F)ccc1-c1cc(C2CN(C(CCCN3CCNC(CC#N)C3)C(C)C)C2)cn2c(C)ncc12)C(C)C` (centres unmarked) [Example 499], the concentration for half-maximal inhibition (IC50) at Menin-MLL (setting [3]) was 2.1 nM; in test [1], 29 nM.

On to `CCN(C(=O)c1cc(F)ccc1-c1cc(C2CN([C@H](CCCN3CCC(OC)CC3)C(C)C)C2)cc2c1cnn2C)C(C)C` [Example 399-2, N-ethyl-5-fluoro-2-(6-{1-[(3R)-6-(4-methoxypiperidin-1-yl)-2-methylhexan-3-yl]azacyclobutan-3-yl}-1-methyl-1H-indazol-4-yl)-N-(isopropyl)benzamide], for which the 50% inhibitory concentration (IC50) on Menin-MLL (setting [2]) stood at 3.3 nM; in test [1] (Homo sapiens, 168 h) it was 25 nM.

`CCN(C(=O)c1cc(F)ccc1-c1cc(C2CN([C@H](CN3CCN(C[C@H](O)CO)CC3)C(C)C)C2)cn2c(C)ncc12)C(C)C` [Example 428]: the IC50 at Menin-MLL (setting [2]) amounted to 3.7 nM; in test [1] (Homo sapiens, 168 h), 52 nM.

As for `CCN(C(=O)c1cc(F)ccc1-c1cc(C2CN([C@H](CCCN3CCN(CCF)CC3)C(C)C)C2)cc2c1cnn2C)C(C)C` [Example 410], the 50% inhibitory concentration (IC50) at Menin-MLL (setting [2]) is 5.8 nM; in test [1] (Homo sapiens, 168 h), 37 nM.

Regarding `CCN(C(=O)c1cc(F)ccc1-c1cc(C2CN([C@@H](CN3CCN(C)CC3)C(C)C)C2)cn2c(C)ncc12)C(C)C` [Example 403-2, N-ethyl-5-fluoro-2-(3-methyl-6-{1-[(2R)-3-methyl-1-(4-methylpiperazin-1-yl)butan-2-yl]azacyclobutan-3-yl}imidazo[1,5-a]pyridin-8-yl)-N-(isopropyl)benzamide], the IC50 at Menin-MLL (setting [2]) stood at 10 nM; in test [1] (Homo sapiens, 168 h), 38 nM.

On to `CCN(C(=O)c1cc(F)ccc1-c1cc(C2CN(C(CC[C@@H]3COCCN3)C(C)C)C2)cc2c1cnn2C)C(C)C` (stereo partly drawn) [Example 458, N-ethyl-5-fluoro-2-[1-methyl-6-(1-{4-methyl-1-[(3R)-morpholin-3-yl]pentan-3-yl}azacyclobutan-3-yl}-1H-indazol-4-yl)-N-(isopropyl)benzamide], for which the IC50 on Menin-MLL (setting [2]) came to 6.4 nM; in test [1] (Homo sapiens, 168 h), 31 nM.

Consider `CCN(C(=O)c1cc(F)ccc1-c1cc(C2CN([C@H](CC[C@@H]3COCCN3)C(C)C)C2)cn2c(C)ncc12)C(C)C` [Example 449-1, N-ethyl-5-fluoro-2-(3-methyl-6-{1-[(3R)-4-methyl-1-[(3R)-morpholin-3-yl]pentan-3-yl]azacyclobutan-3-yl}imidazo[1,5-a]pyridin-8-yl)-N-(isopropyl)benzamide], for which the 50% inhibitory concentration (IC50) on Menin-MLL (setting [2]) was determined as 2.6 nM; in test [1] (Homo sapiens, 168 h), 6.1 nM.

For `CCN1CCN(CCC[C@H](C(C)C)N2CC(c3cc(-c4ccc(F)cc4C(=O)N(CC)C(C)C)c4cnc(C)n4c3)C2)CC1` [Example 377], the concentration for half-maximal inhibition (IC50) at Menin-MLL (setting [2]) came to 2 nM; in test [1] (Homo sapiens, 168 h), 1.7 nM.

Consider `CCN(C(=O)c1cc(F)ccc1-c1cc(C2CN(C(CCCN3CCNC(CC#N)C3)C(C)C)C2)cn2c(C)ncc12)C(C)C` (centres unmarked) [Example 498], for which the IC50 at Menin-MLL (setting [3]) was determined as 2.8 nM; in test [1] (Homo sapiens, MOLM-13, 168 h), 23 nM.

In the case of `CCN(C(=O)c1cc(F)ccc1-c1cc(C2CN([C@H](CCCN3CCN[C@@H](COC)C3)C(C)C)C2)cn2c(C)ncc12)C(C)C` [Example 502], the half-maximal inhibitory concentration (IC50) came to 0.9 nM at Menin-MLL (setting [2]) and 9.8 nM in test [1] (Homo sapiens, 168 h).

Consider `CCN(C(=O)c1cc(F)ccc1-c1cc(C2CN([C@H](CCCN3CCN(CCOC)CC3)C(C)C)C2)cn2c(C)ncc12)C(C)C` [Example 497], for which the IC50 at Menin-MLL (setting [2]) turned out to be 0.9 nM; in test [1] (Homo sapiens, 168 h), 41 nM.

Take `CCN(C(=O)c1cc(F)ccc1-c1cc(C2CN([C@H](CCCN3CCOC[C@H]3CO)C(C)C)C2)cn2c(C)ncc12)C(C)C` [Example 453]: the IC50 was 5.3 nM at Menin-MLL (setting [2]) and 22 nM in test [1] (Homo sapiens, 168 h).

As to `CCN(C(=O)c1cc(F)ccc1-c1cc(C2CN([C@H](CCCN3CCN(C4(C(N)=O)COC4)CC3)C(C)C)C2)cn2c(C)ncc12)C(C)C` [Example 475, 3-{4-[(4R)-4-[3-(8-{2-[ethyl(isopropyl)aminoformyl]-4-fluorophenyl}-3-methylimidazo[1,5-a]pyridin-6-yl)azacyclobutan-1-yl]-5-methylhexyl]piperazin-1-yl}oxacyclobutan-3-formamide], the IC50 was 1 nM at Menin-MLL (setting [2]) and 25 nM in test [1] (Homo sapiens, 168 h).

The values are drawn from patent EP4782453A1 (Beyang Therapeutics Co., Ltd., priority 2023, dated 2025).
